SMILES strings stand for the structures.

The test concerns the target T1, human CXCR2 (Homo sapiens, UniProt P25025).
T1 construct: expressed in transfected cells; host or cells: BAF/3 cells
T1 sequence (P25025 1-360): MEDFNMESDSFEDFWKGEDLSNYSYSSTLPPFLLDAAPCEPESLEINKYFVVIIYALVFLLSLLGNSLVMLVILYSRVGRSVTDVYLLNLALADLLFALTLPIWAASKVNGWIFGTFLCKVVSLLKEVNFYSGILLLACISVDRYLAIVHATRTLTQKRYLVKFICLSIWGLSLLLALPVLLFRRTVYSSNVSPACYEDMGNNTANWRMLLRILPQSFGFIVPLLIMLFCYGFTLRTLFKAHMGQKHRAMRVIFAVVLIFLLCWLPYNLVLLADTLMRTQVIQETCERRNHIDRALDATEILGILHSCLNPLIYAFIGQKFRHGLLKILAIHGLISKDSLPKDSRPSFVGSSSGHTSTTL
As to the kind of experiment: Chemotaxis assay 1, transfected cell line: inhibition of CXCL1 induced chemotaxis of BAF/3 cells expressing human CXCR2. The class given is cell-based. The following applies: CXCL1 (3 nM) induced chemotaxis of BAF/3 cells expressing human CXCR2, 4 hours, Cell Titer Glo readout. As to the method:
Chemotaxis Assay 1, Transfected Cell Line:
This assay measures the inhibition of CXCL1 induced chemotaxis of BAF/3 cells expressing human CXCR2. For each assay point, 100 μL of a 3×10^6/mL cell suspension are incubated with 1 μL of test compound diluted in DMSO. The bottom wells of a chemotaxis plate (5 μm pore size, Neuroprobe) is filled with 305 μL of chemotaxis buffer (RPMI 1640 medium (phenol red free), containing 2% fetal calf serum) and 3 nM CXCL1. The 5 μm pore membrane is applied onto the chemotaxis plate and 80 μL of the cell suspension is cautiously pipetted onto the membrane. The lid is put on the chemotaxis plate and the plate is incubated for 4 hours in an incubator (37° C., 5% CO2). For quantification of migrated cells, the cell suspension and the lid are removed and 100 μL from the bottom chamber are transferred to an Opti plate 96 (Perkin Elmer). 100 μL of substrate solution (provided by Cell Titer Glo kit, Promega) are added. This method uses the measurement of ATP present in metabolically active cells. After 10 min incubation at room temperature the plate is measured at Luminoscan for quantification of ATP-dependent generation of oxyluciferin. IC50s of the tested compound are calculated by non-linear regression and using a sigmoidal dose-response curve as fitting algorithm (provided by GraphPadPrism). Determination of a bottom value is performed by quantification of migration of buffer treated cells, migrating towards buffer only. Determination of a top value is performed by quantification of migration of buffer treated cells, migrating towards CXCL1.
Regarding `CC[C@@H](Nc1c(Nc2ccc(Cl)c(S(=O)(=O)N3CCN4CCCC4C3)c2O)c(=O)c1=O)c1ccc(C)o1` (some centres unmarked) [Example 2], half-maximal inhibition (IC50) was put at 0.9 nM.
As to `CC[C@@H](Nc1c(Nc2ccc(Cl)c(S(=O)(=O)N3CCN4CCOC[C@@H]4C3)c2O)c(=O)c1=O)c1ccc(C(F)(F)F)o1` [Example 10], the IC50 (as a rule, the concentration at which inhibition is half-maximal) is 64.8 nM.
The result for `O=c1c(Nc2ccc(Cl)c(S(=O)(=O)N3CCN4CCCC4C3)c2O)c(Nc2cccc(F)c2Cl)c1=O` (centres unmarked) [Example 3] reads 5.1 nM; that for `CC[C@@H](Nc1c(Nc2ccc(Cl)c(S(=O)(=O)N3CCC4(CC3)COCCN4)c2O)c(=O)c1=O)c1ccccc1` [Example 15], 33.8 nM.
On to `CC[C@@H](Nc1c(Nc2ccc(Cl)c(S(=O)(=O)N3C[C@H]4NCCO[C@@H]4C3)c2O)c(=O)c1=O)c1ccc(C)o1` [Example 20], for which the IC50 came out at 58.6 nM.
The result for `CC[C@@H](Nc1c(Nc2ccc(Cl)c(S(=O)(=O)N3CCC4(CC3)COCCN4)c2O)c(=O)c1=O)c1ccc(C(F)(F)F)o1` [Example 17] reads 54.4 nM; that for `O=c1c(Nc2ccc(Cl)c(S(=O)(=O)N3CCN4CCOCC4C3)c2O)c(Nc2cccc(F)c2Cl)c1=O` (centres unmarked) [Example 6], 37.8 nM.
Regarding `CCC(Nc1c(Nc2ccc(Cl)c(S(=O)(=O)N3CCN4C(=O)CCC4C3)c2O)c(=O)c1=O)c1ccc(C)o1` (centres unmarked) [Example 12], half-maximal inhibition (IC50) required 14.4 nM.
With `CC[C@@H](Nc1c(Nc2ccc(Cl)c(S(=O)(=O)N3CCC4(CCCC4)CC3)c2O)c(=O)c1=O)c1ccc(C)o1` [Example 19], 11.6 nM corresponded to half-maximal inhibition (IC50).
In turn, `CC[C@@H](Nc1c(Nc2ccc(Cl)c(S(=O)(=O)N3CCN4CCOC[C@@H]4C3)c2O)c(=O)c1=O)c1ccc(C)o1` [Example 9] showed an IC50 of 13.4 nM.
`CC[C@@H](Nc1c(Nc2ccc(Cl)c(S(=O)(=O)N3CCN4CCCC4C3)c2O)c(=O)c1=O)c1ccccc1` (some centres unmarked) [Example 1]: the IC50 stood at 0.7 nM.
On to `CC[C@@H](Nc1c(Nc2ccc(Cl)c(S(=O)(=O)N3CCN4CCOC[C@H]4C3)c2O)c(=O)c1=O)c1ccc(C)o1` [Example 7], for which half-maximal inhibition (IC50) required 4.9 nM.
Molecule `CC[C@@H](Nc1c(Nc2ccc(Cl)c(S(=O)(=O)N3CCN4CCOCC4C3)c2O)c(=O)c1=O)c1ccc(C)o1` (some centres unmarked) [Example 5] came in with an IC50 of 6.8 nM.
Consider `CC[C@@H](Nc1c(Nc2ccc(Cl)c(S(=O)(=O)N3CCN4CCOCC4C3)c2O)c(=O)c1=O)c1ccccc1` (some centres unmarked) [Example 4], for which it took 0.6 nM to reach half-maximal inhibition (IC50).
`CC[C@@H](Nc1c(Nc2ccc(Cl)c(S(=O)(=O)N3CCC4(CC3)COCCN4)c2O)c(=O)c1=O)c1ccc(C)o1` [Example 16] yielded a 50% inhibitory concentration (IC50) of 8.7 nM.
For the molecule `CC[C@@H](Nc1c(Nc2ccc(Cl)c(S(=O)(=O)N3CCN4CCOC[C@H]4C3)c2O)c(=O)c1=O)c1ccc(C(F)(F)F)o1` [Example 8], the IC50 came to 56.6 nM.
Consider `CC[C@@H](Nc1c(Nc2ccc(Cl)c(S(=O)(=O)N3CCC4(CCCC4)CC3)c2O)c(=O)c1=O)c1ccccc1` [Example 18], for which it took 149 nM to reach half-maximal inhibition (IC50).
Under `CCC(Nc1c(Nc2ccc(Cl)c(S(=O)(=O)N3CCN4C(=O)CCC4C3)c2O)c(=O)c1=O)c1ccccc1` (centres unmarked) [Example 11] stands 2.6 nM.
The result for `CC[C@@H](Nc1c(Nc2ccc(Cl)c(S(=O)(=O)N3CCC4(CCNC4=O)CC3)c2O)c(=O)c1=O)c1ccccc1` [Example 13] reads 22.6 nM; that for `CC[C@@H](Nc1c(Nc2ccc(Cl)c(S(=O)(=O)N3CCC4(CCNC4=O)CC3)c2O)c(=O)c1=O)c1ccc(C)o1` [Example 14], 47.1 nM.

These data come from patent US8648070B2, “Bicyclic ring system substituted sulfonamide functionalised phenols as medicaments” (Boehringer Ingelheim International GmbH, priority 2010, dated 2014).
